System: patients with cGVHD
Details: Cohort 1 200 mg QD
Experimental: All responses were assessed by the investigators.
Reported Adverse Events. […] All-cause mortality data collected during the study were assessed for all enrolled participants. Disease progression related death was not reported as AE.
Number of Participants With Treatment-emergent Adverse Events (TEAEs), and Treatment-emergent Serious Adverse Events (TESAEs). […] TEAEs included both SAEs and non-SAEs. […] Analysis was performed on safety population which included all participants who received at least 1 dose of study medication.

CC(C)NC(=O)COc1cccc(-c2nc(Nc3ccc4[nH]ncc4c3)c3ccccc3n2)c1 [Belumosudil, 2-{3-[4-(1H-indazol-5-ylamino)-2-quinazolinyl]phenoxy}-N-(propan-2-yl) acetamide]
Abdominal distension: # Events: 1
Abdominal distension: Affected/At Risk (%): 1/17 (5.88%)
Abdominal pain upper: # Events: 1
Abdominal pain upper: Affected/At Risk (%): 1/17 (5.88%)
Abdominal pain: # Events: 2
Abdominal pain: Affected/At Risk (%): 2/17 (11.76%)
Actinic keratosis: # Events: 0
Actinic keratosis: Affected/At Risk (%): 0/17 (0%)
Acute kidney injury: # Events: 4
Acute kidney injury: Affected/At Risk (%): 1/17 (5.88%)
Acute respiratory distress syndrome: # Events: 1
Acute respiratory distress syndrome: Affected/At Risk (%): 1/17 (5.88%)
Adrenal insufficiency: # Events: 2
Adrenal insufficiency: Affected/At Risk (%): 1/17 (5.88%)
Alanine aminotransferase increased: # Events: 12
Alanine aminotransferase increased: Affected/At Risk (%): 6/17 (35.29%)
All grade ALT/AST increased, No. (%): 11 (65)
All grade Cough, No. (%): 1 (6)
All grade Diarrhea, No. (%): 6 (35)
All grade Dyspnea, No. (%): 3 (18)
All grade Fatigue, No. (%): 6 (35)
All grade Headache, No. (%): 4 (24)
All grade Hypertension, No. (%): 5 (29)
All grade Nausea, No. (%): 6 (35)
All grade Peripheral edema, No. (%): 3 (18)
All grade URI, No. (%): 9 (53)
All-Cause Mortality, %: (11.76%)
All-Cause Mortality, Affected/At Risk: 2/17
Anaemia: # Events: 14
Anaemia: Affected/At Risk (%): 5/17 (29.41%)
Anal incontinence: # Events: 2
Anal incontinence: Affected/At Risk (%): 1/17 (5.88%)
Anxiety: # Events: 1
Anxiety: Affected/At Risk (%): 1/17 (5.88%)
Any AE, No. (%): 17 (100)
Arthralgia: # Events: 1
Arthralgia: Affected/At Risk (%): 1/17 (5.88%)
Aspartate aminotransferase increased: # Events: 8
Aspartate aminotransferase increased: Affected/At Risk (%): 5/17 (29.41%)
Asthenia: # Events: 0
Asthenia: Affected/At Risk (%): 0/17 (0%)
Atelectasis: # Events: 1
Atelectasis: Affected/At Risk (%): 1/17 (5.88%)
Back pain: # Events: 0
Back pain: Affected/At Risk (%): 0/17 (0%)
Balance disorder: # Events: 0
Balance disorder: Affected/At Risk (%): 0/17 (0%)
Basal cell carcinoma: # Events: 0
Basal cell carcinoma: Affected/At Risk (%): 0/17 (0%)
Benign prostatic hyperplasia: # Events: 1
Benign prostatic hyperplasia: Affected/At Risk (%): 1/17 (5.88%)
Blepharitis: # Events: 1
Blepharitis: Affected/At Risk (%): 1/17 (5.88%)
Blister: # Events: 0
Blister: Affected/At Risk (%): 0/17 (0%)
Blood alkaline phosphatase increased: # Events: 6
Blood alkaline phosphatase increased: Affected/At Risk (%): 4/17 (23.53%)
Blood chloride decreased: # Events: 0
Blood chloride decreased: Affected/At Risk (%): 0/17 (0%)
Blood cholesterol increased: # Events: 2
Blood cholesterol increased: Affected/At Risk (%): 1/17 (5.88%)
Blood creatine increased: # Events: 0
Blood creatine increased: Affected/At Risk (%): 0/17 (0%)
Blood creatine phosphokinase increased: # Events: 1
Blood creatine phosphokinase increased: Affected/At Risk (%): 1/17 (5.88%)
Blood creatinine increased: # Events: 1
Blood creatinine increased: Affected/At Risk (%): 1/17 (5.88%)
Blood loss anaemia: # Events: 1
Blood loss anaemia: Affected/At Risk (%): 1/17 (5.88%)
Bronchial secretion retention: # Events: 0
Bronchial secretion retention: Affected/At Risk (%): 0/17 (0%)
Bronchitis: # Events: 1
Bronchitis: Affected/At Risk (%): 1/17 (5.88%)
Bronchoscopy: # Events: 1
Bronchoscopy: Affected/At Risk (%): 1/17 (5.88%)
Catheter site haemorrhage: # Events: 1
Catheter site haemorrhage: Affected/At Risk (%): 1/17 (5.88%)
Chills: # Events: 1
Chills: Affected/At Risk (%): 1/17 (5.88%)
Chronic kidney disease: # Events: 1
Chronic kidney disease: Affected/At Risk (%): 1/17 (5.88%)
Conjunctival haemorrhage: # Events: 0
Conjunctival haemorrhage: Affected/At Risk (%): 0/17 (0%)
Conjunctivitis: # Events: 0
Conjunctivitis: Affected/At Risk (%): 0/17 (0%)
Constipation: # Events: 1
Constipation: Affected/At Risk (%): 1/17 (5.88%)
Contrast media allergy: # Events: 0
Contrast media allergy: Affected/At Risk (%): 0/17 (0%)
Contusion: # Events: 2
Contusion: Affected/At Risk (%): 2/17 (11.76%)
Corneal abrasion: # Events: 1
Corneal abrasion: Affected/At Risk (%): 1/17 (5.88%)
Corneal infection: # Events: 0
Corneal infection: Affected/At Risk (%): 0/17 (0%)
Cough: # Events: 1
Cough: Affected/At Risk (%): 1/17 (5.88%)
Death, No. (%): 0
Decreased appetite: # Events: 4
Decreased appetite: Affected/At Risk (%): 2/17 (11.76%)
Dehydration: # Events: 2
Dehydration: Affected/At Risk (%): 2/17 (11.76%)
Depression: # Events: 0
Depression: Affected/At Risk (%): 0/17 (0%)
Diarrhoea: # Events: 9
Diarrhoea: Affected/At Risk (%): 6/17 (35.29%)
Dizziness: # Events: 0
Dizziness: Affected/At Risk (%): 0/17 (0%)
Drug eruption: # Events: 0
Drug eruption: Affected/At Risk (%): 0/17 (0%)
Drug-related AE, No. (%): 8 (47)
Drug-related SAE, No. (%): 0
Dry eye: # Events: 3
Dry eye: Affected/At Risk (%): 2/17 (11.76%)
Dry skin: # Events: 1
Dry skin: Affected/At Risk (%): 1/17 (5.88%)
Dyspepsia: # Events: 0
Dyspepsia: Affected/At Risk (%): 0/17 (0%)
Dysphagia: # Events: 1
Dysphagia: Affected/At Risk (%): 1/17 (5.88%)
Dyspnoea exertional: # Events: 1
Dyspnoea exertional: Affected/At Risk (%): 1/17 (5.88%)
Dyspnoea: # Events: 2
Dyspnoea: Affected/At Risk (%): 2/17 (11.76%)
Embolism: # Events: 1
Embolism: Affected/At Risk (%): 1/17 (5.88%)
Enamel anomaly: # Events: 0
Enamel anomaly: Affected/At Risk (%): 0/17 (0%)
Epidural lipomatosis: # Events: 1
Epidural lipomatosis: Affected/At Risk (%): 1/17 (5.88%)
Epstein-Barr virus infection: # Events: 1
Epstein-Barr virus infection: Affected/At Risk (%): 1/17 (5.88%)
Erectile dysfunction: # Events: 4
Erectile dysfunction: Affected/At Risk (%): 2/17 (11.76%)
Eye irritation: # Events: 1
Eye irritation: Affected/At Risk (%): 1/17 (5.88%)
Eye pain: # Events: 0
Eye pain: Affected/At Risk (%): 0/17 (0%)
Eye pruritus: # Events: 0
Eye pruritus: Affected/At Risk (%): 0/17 (0%)
Fall: # Events: 2
Fall: Affected/At Risk (%): 2/17 (11.76%)
Fatigue: # Events: 7
Fatigue: Affected/At Risk (%): 6/17 (35.29%)
Flatulence: # Events: 0
Flatulence: Affected/At Risk (%): 0/17 (0%)
Flushing: # Events: 0
Flushing: Affected/At Risk (%): 0/17 (0%)
Fungal infection: # Events: 1
Fungal infection: Affected/At Risk (%): 1/17 (5.88%)
Gamma-glutamyltransferase increased: # Events: 9
Gamma-glutamyltransferase increased: Affected/At Risk (%): 4/17 (23.53%)
Gastric ulcer: # Events: 0
Gastric ulcer: Affected/At Risk (%): 0/17 (0%)
Gastrooesophageal reflux disease: # Events: 2
Gastrooesophageal reflux disease: Affected/At Risk (%): 2/17 (11.76%)
Generalised oedema: # Events: 1
Generalised oedema: Affected/At Risk (%): 1/17 (5.88%)
Genital infection fungal: # Events: 0
Genital infection fungal: Affected/At Risk (%): 0/17 (0%)
Glaucoma: # Events: 0
Glucose urine present: # Events: 3
Glucose urine present: Affected/At Risk (%): 2/17 (11.76%)
Grade ≥3 AE, No. (%): 9 (53)
Grade ≥3 ALT/AST increased, No. (%): 2 (12)
Grade ≥3 Anemia, No. (%): 2 (12)
Grade ≥3 Dyspnea, No. (%): 1 (6)
Grade ≥3 Hyperglycemia, No. (%): 2 (12)
Grade ≥3 Hypoxia, No. (%): 1 (6)

From patent US20260027116A1, “Methods of Treating Chronic Graft-Versus-Host Disease Following Allogeneic Hematopoietic Stem Cell Transplantation” (Kadmon Corporation, LLC, priority 2022, published 2026)
